Measured values: article PMC5159558 (Nucleic Acids Research, 2016)

Columns and labels:
RET1ΔNC = target: T1, RET1ΔNC (Trypanosoma brucei, UniProt Q8WQX5); experiment: X-ray crystal structure, […] Å; format: binding; settings: 0.5 mM UMPnPP, 1 mM MgCl2; active site; non-hydrolysable UTP analogue
T1 sequence (Q8WQX5 189-699): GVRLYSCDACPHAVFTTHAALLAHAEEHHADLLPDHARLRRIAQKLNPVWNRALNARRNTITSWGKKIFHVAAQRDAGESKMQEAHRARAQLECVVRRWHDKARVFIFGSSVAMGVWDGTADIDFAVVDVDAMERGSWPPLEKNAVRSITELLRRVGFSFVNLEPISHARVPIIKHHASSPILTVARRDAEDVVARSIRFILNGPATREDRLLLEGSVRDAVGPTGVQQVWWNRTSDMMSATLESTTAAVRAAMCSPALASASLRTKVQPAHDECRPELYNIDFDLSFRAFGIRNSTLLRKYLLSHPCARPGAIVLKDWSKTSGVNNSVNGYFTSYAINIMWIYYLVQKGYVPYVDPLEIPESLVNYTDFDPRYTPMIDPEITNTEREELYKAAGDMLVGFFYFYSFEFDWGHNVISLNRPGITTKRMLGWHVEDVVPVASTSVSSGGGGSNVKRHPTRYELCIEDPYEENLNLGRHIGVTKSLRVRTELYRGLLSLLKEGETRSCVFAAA

TUT4 = target: T2, TUT4 (Trypanosoma brucei, UniProt Q381M1); experiment: X-ray crystal structure, […] Å; format: binding; settings: Mg2+
T2 sequence (Q381M1 1-333): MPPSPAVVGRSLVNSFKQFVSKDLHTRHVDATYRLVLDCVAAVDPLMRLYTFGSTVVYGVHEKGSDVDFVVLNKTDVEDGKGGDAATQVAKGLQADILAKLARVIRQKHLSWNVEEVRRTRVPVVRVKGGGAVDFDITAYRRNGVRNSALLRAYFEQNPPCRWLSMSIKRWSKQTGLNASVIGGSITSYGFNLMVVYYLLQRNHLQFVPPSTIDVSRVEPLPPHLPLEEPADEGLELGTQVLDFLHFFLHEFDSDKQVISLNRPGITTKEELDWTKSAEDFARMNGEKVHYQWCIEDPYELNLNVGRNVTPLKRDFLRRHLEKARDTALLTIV

For `O=c1ccn([C@@H]2O[C@H](COP(=O)(O)NP(=O)(O)OP(=O)(O)O)[C@@H](O)[C@H]2O)c(=O)[nH]1` [UMPnPP], the “X-ray crystal structure, 1.8 Å (soaked crystals)” value (RET1ΔNC) was “Crystals of RET1ΔNC in complex with the UTP analog UMPNPP were obtained by soaking”.

With `O=c1ccn([C@@H]2O[C@H](COP(=O)(O)OP(=O)(O)OP(=O)(O)O)[C@@H](O)[C@H]2O)c(=O)[nH]1` [UTP] the “X-ray crystal structure, 2.75 Å” value (TUT4; ternary complex with UpU, co-crystallised with UTP) was “structure of TUT4 from T. brucei with bound UTP and RNA-mimicking dinucleotide UpU”.

`O=c1ccn([C@@H]2O[C@H](COP(=O)(O)O[C@H]3[C@@H](O)[C@H](n4ccc(=O)[nH]c4=O)O[C@@H]3CO)[C@@H](O)[C@H]2O)c(=O)[nH]1` [UpU] was tested, and the “X-ray crystal structure, 2.75 Å” value (TUT4; ternary complex with UTP, crystals soaked in 1 mM UpU) was “structure of TUT4 from T. brucei with bound UTP and RNA-mimicking dinucleotide UpU”.
